The experiment concerns the target T1, Tyrosine-protein phosphatase non-receptor type 1 (Homo sapiens, UniProt P18031).
T1 sequence (P18031 whole entry): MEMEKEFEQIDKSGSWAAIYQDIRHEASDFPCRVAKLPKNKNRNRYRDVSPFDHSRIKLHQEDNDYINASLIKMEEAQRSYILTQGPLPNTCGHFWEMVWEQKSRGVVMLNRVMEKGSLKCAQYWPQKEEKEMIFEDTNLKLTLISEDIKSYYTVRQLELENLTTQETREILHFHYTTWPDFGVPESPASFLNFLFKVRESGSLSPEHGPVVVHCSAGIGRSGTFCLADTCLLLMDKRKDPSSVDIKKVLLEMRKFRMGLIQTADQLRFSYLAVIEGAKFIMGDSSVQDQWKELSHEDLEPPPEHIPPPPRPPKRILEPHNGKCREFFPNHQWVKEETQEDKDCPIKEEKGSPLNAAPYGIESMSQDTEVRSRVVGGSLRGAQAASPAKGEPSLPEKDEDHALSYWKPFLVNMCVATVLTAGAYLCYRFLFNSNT
Nature of the experiment: Inhibition of PTP1B (unknown origin) using pNPP as substrate.
The compound `O=C(O)[C@@H](Cc1ccccc1)N1C(=O)/C(=C/c2cn(-c3ccccc3)nc2-c2ccccc2)SC1=S` gave an IC50 of 6.37 µM.

With `O=C(O)CCCCCN1C(=O)/C(=C/c2cn(-c3ccccc3)nc2-c2ccc(Cl)cc2)SC1=S`, the midpoint of inhibition, the IC50, lay at 1.85 µM.

On to `O=C(O)CCCCN1C(=O)/C(=C/c2cn(-c3ccccc3)nc2-c2ccc(Cl)cc2)SC1=S`, for which the IC50 was 2.2 µM.

Compound `O=C(O)CCCN1C(=O)/C(=C/c2cn(-c3ccccc3)nc2-c2ccc(Cl)cc2)SC1=S` had an IC50 of 2.27 µM.

`COc1ccc(-c2nn(-c3ccccc3)cc2/C=C2\SC(=S)N([C@H](Cc3ccccc3)C(=O)O)C2=O)cc1` registered a half-maximal inhibitory concentration (IC50) of 7.09 µM. This IC50 lies about 3.1-fold higher than the previous one.

In turn, `O=C(O)[C@@H](Cc1ccccc1)N1C(=O)/C(=C/c2cn(-c3ccccc3)nc2-c2ccc([N+](=O)[O-])cc2)SC1=S` came in with a half-inhibitory concentration (IC50) of 3.57 µM.

As to `O=C(O)[C@@H](Cc1ccccc1)N1C(=O)/C(=C/c2cn(-c3ccccc3)nc2-c2ccc(Cl)cc2)SC1=S`, 2.1 µM corresponded to half-maximal inhibition (IC50). This IC50 is about 1.7-fold lower than that of the compound before.

Consider `Cc1ccc(-c2nn(-c3ccccc3)cc2/C=C2\SC(=S)N(CC(=O)O)C2=O)cc1`, for which the IC50 was 14.7 µM.

In turn, `Cc1ccc(-c2nn(-c3ccccc3)cc2/C=C2\SC(=S)N([C@H](Cc3ccccc3)C(=O)O)C2=O)cc1` registered an IC50 of 2.05 µM.

In turn, `O=C(O)[C@@H](Cc1ccccc1)N1C(=O)/C(=C/c2cn(-c3ccccc3)nc2-c2ccccc2Cl)SC1=S` yielded an IC50 of 4.89 µM.

As to `COc1cccc(-c2nn(-c3ccccc3)cc2/C=C2\SC(=S)N([C@H](Cc3ccccc3)C(=O)O)C2=O)c1`, the IC50 was determined as 4.95 µM.

As for `O=C(O)CN1C(=O)/C(=C/c2cn(-c3ccccc3)nc2-c2ccc([N+](=O)[O-])cc2)SC1=S`, the IC50 worked out at 9.24 µM.

Compound `O=C(O)CCN1C(=O)/C(=C/c2cn(-c3ccccc3)nc2-c2ccc(Cl)cc2)SC1=S` returned a 50% inhibitory concentration (IC50) of 6.58 µM.

Regarding `O=C(O)CN1C(=O)/C(=C/c2cn(-c3ccccc3)nc2-c2ccc(Br)cc2)SC1=S`, 14.2 µM corresponded to half-maximal inhibition (IC50). Compared with the last compound, the IC50 is about 2.2-fold higher.

`COc1ccccc1-c1nn(-c2ccccc2)cc1/C=C1\SC(=S)N([C@H](Cc2ccccc2)C(=O)O)C1=O` had an IC50 of 6.3 µM.

Consider `O=C(O)[C@@H](Cc1ccccc1)N1C(=O)/C(=C/c2cn(-c3ccccc3)nc2-c2cccc(Br)c2)SC1=S`, for which the IC50 was determined as 2.76 µM.

On to `O=C(O)CN1C(=O)/C(=C/c2cn(-c3ccccc3)nc2-c2cccc(Br)c2)SC1=S`, for which the 50% inhibitory concentration (IC50) stood at 12.1 µM.

Compound `O=C(O)[C@@H](Cc1ccccc1)N1C(=O)/C(=C/c2cn(-c3ccccc3)nc2-c2ccc(Br)cc2)SC1=S` showed an IC50 of 4.42 µM.

As for `O=C(O)CN1C(=O)/C(=C/c2cn(-c3ccccc3)nc2-c2cccc(Cl)c2)SC1=S`, the half-inhibitory concentration (IC50) came to 13.2 µM.

The compound `COc1ccccc1-c1nn(-c2ccccc2)cc1/C=C1\SC(=S)N(CC(=O)O)C1=O` registered an IC50 of 24.6 µM.

In general, IC50 refers to the concentration needed to halve the response being measured. The low end stands for greater potency, the high end for weaker potency.

For the origin of these results see ChEMBL document CHEMBL4316629, “Discovery of 1,3-diphenyl-1H-pyrazole derivatives containing rhodanine-3-alkanoic acid groups as potential PTP1B inhibitors” (Bioorg Med Chem Lett, 2019).
